Where a SMILES comes first, the peptide text is derived from it. Bridges are numbered along the chain shown (N, C = ends).
Experiment: SS bond reduction by DTT monitored by 1H NMR
Format: physicochemical
Settings: 1.7 mM protein, twofold excess of DTT, 15 °C; for DTT: Conversion rate / DTT: Elapsed time to steady state: pH 7; for DTT: t1/2 of reduction: pH 7, calculated from k1 (Eq. 12); for DTT: k1: pH 7, parameter estimation (phase 1 data)
Method: An appropriate reduction protocol was required to unambiguously determine the 3D structures of the above‐introduced pure reduced states. Thus, in agreement with the above discussion, only mild conditions (15 °C and twofold molar excess of […]) were used for the reduction of the four different miniproteins. Determining the structural properties and reduction rates under the same conditions allowed us to elucidate the basis of the observed differences in the reduction rates. […] It appears as if “cutting back” on the α‐helical segment strongly affects the SS bond reducibility, even though the SS bonds of all four models are near the surfaces (Figure 7 A). To our great surprise, we recorded three orders of magnitude differences between the reduction rate constants (Table 3). Whereas the reduction of E2_SS is still extremely fast, tE2_SS/1/2 <≈1 min, that of E5_SS occurs on the timescale of minutes: tE5_SS/1/2 ≈14 min. […] The conversion rate was close to complete for the shorter peptide of E2_SS, whereas the reduction of E19_SS was only 88 % complete. The kinetic parameters of all four model proteins were determined by using a twofold molar excess of DTT, at pH 7, and T=15 °C.
Monitoring reduction kinetics: Peptide samples were prepared between 0.8 and 1.8 mM in 50 mM NaH2PO4–Na2HPO4 buffer (600 μL, pH 6.95), with 10 % D2O. A 0.1 M solution of NaOH was used to set the pH to 7. Sodium trimethylsilylpropanesulfonate (DSS) was added as the internal proton reference standard, set to δ=0.0 ppm under all conditions. ^1H,^1H 2D homonuclear spectra were recorded for the oxidized peptide; thereafter, upon the addition of a different excess of 0.5 M TCEP or DTT, reduction was observed by recording a series of 1D ^1H spectra (ns=64 or 128 scans). Finally, at the end point, ^1H,^1H homonuclear 2D spectra were recorded on the reduced peptide. Data sets were processed by using TopSpin 3.2 software. The conversion rate was determined by using the relative integral of the Trp Hϵ1 signal in the oxidized (IntOX) and reduced (IntRED) form. Each integral was normalized to the integral of DSS. The concentrations were determined by the ratio of the oxidized and reduced integrals and the initial protein concentration.
Parameter estimation: Kinetic parameter estimation was based on the integral of selected NMR signals considered to be proportional to the concentration of the relevant species. The mechanism taken into account is that given by Equations (8), (9), (10), (11):(8) SS+Red→k12SH+Ox (9) 2SH+O2→k2SS (10) [drawing 1] (11) [drawing 2]
in which SS is the […] model protein with an intramolecular S−S bond; 2 SH is the same protein with the S−S bond reduced to two −SH groups; and the symbol Ø means a different phase from that of the reaction mixture, that is, the polymer aggregate as a sink in the first case and the gas phase as a source in the second case.
For parameter estimation, the COPASI 4.16 (Build 104) Biochemical System Simulator software (http://copasi.org/) was used, with the parameter estimation option of the Levenberg–Marquardt method.
To determine the half‐life and initial concentration of the SS species, a kinetic analysis of the temporal evolution of the reactions was performed. […] From the kinetic analysis, the initial concentration of oxygen ([O2]0) could also be estimated, except for one case in which the uncertainty of this parameter was very large, due to the lack of sufficient experimental data.
Because reduction follows second‐order kinetics, the half‐life (t 1/2) of model proteins also depends on the actual concentration of the RA in the reaction mixture [Eq. (12):(12) t1/2=1/k1(cRed,0-cSS,0)ln2-cSS,0/cRed,0

| DTT: Conversion rate | DTT: Elapsed time to steady state | DTT: t1/2 of reduction | Compound | DTT: k1 |
| --- | --- | --- | --- | --- |
| 95% | 9 to 10 h | 1.92 h | CC[C@H](C)[C@@H]1NC(=O)[C@H](Cc2ccc(O)cc2)NC(=O)[C@H](CC(C)C)NC(=O)[C@H](CCCNC(=N)N)NC(=O)[C@H](C(C)C)NC(=O)[C@@H](NC(=O)[C@H](CCC(=O)O)NC(=O)[C@H](CCC(=O)O)NC(=O)[C@@H](N)CCC(=O)O)CSSC[C@@H](C(=O)O)NC(=O)[C@@H]2CCCN2C(=O)[C@@H]2CCCN2C(=O)[C@@H]2CCCN2C(=O)[C@H](CCCNC(=N)N)NC(=O)CNC(=O)[C@H](CO)NC(=O)[C@H](CO)NC(=O)[C@@H]2CCCN2C(=O)CNC(=O)CNC(=O)[C@H](CC(=O)O)NC(=O)[C@H](CCCCN)NC(=O)[C@H](CC(C)C)NC(=O)[C@H](Cc2c[nH]c3ccccc23)NC(=O)[C@H](CCC(N)=O)NC1=O [E5_SS] (H-EEECVRLYIQWLKDGGPSSGRPPPC-OH; disulfide 4-25) | 0.0363 M⁻¹ s⁻¹ |
| 100% | 5 h | 1.03 h | CC[C@H](C)[C@@H]1NC(=O)[C@H](Cc2ccc(O)cc2)NC(=O)[C@H](CC(C)C)NC(=O)[C@H](CCCNC(=N)N)NC(=O)[C@H](C(C)C)NC(=O)[C@@H](N)CSSC[C@@H](C(=O)O)NC(=O)[C@@H]2CCCN2C(=O)[C@@H]2CCCN2C(=O)[C@@H]2CCCN2C(=O)[C@H](CCCNC(=N)N)NC(=O)CNC(=O)[C@H](CO)NC(=O)[C@H](CO)NC(=O)[C@@H]2CCCN2C(=O)CNC(=O)CNC(=O)[C@H](CC(=O)O)NC(=O)[C@H](CCCCN)NC(=O)[C@H](CC(C)C)NC(=O)[C@H](Cc2c[nH]c3ccccc23)NC(=O)[C@H](CCC(N)=O)NC1=O [E2_SS] (H-CVRLYIQWLKDGGPSSGRPPPC-OH; disulfide 1-22) | 0.0673 M⁻¹ s⁻¹ |
| ≈84% | 138 h | 27.65 h | CC[C@H](C)[C@@H]1NC(=O)[C@H](Cc2ccc(O)cc2)NC(=O)[C@H](CC(C)C)NC(=O)[C@H](CCCNC(=N)N)NC(=O)[C@H](C(C)C)NC(=O)[C@@H](NC(=O)[C@H](CCC(=O)O)NC(=O)[C@H](CCC(=O)O)NC(=O)[C@H](CCC(=O)O)NC(=O)[C@H](CCSC)NC(=O)[C@H](CCC(N)=O)NC(=O)[C@H](CCCCN)NC(=O)[C@H](CO)NC(=O)[C@H](CC(C)C)NC(=O)[C@@H](N)CC(=O)O)CSSC[C@@H](C(=O)O)NC(=O)[C@@H]2CCCN2C(=O)[C@@H]2CCCN2C(=O)[C@@H]2CCCN2C(=O)[C@H](CCCNC(=N)N)NC(=O)CNC(=O)[C@H](CO)NC(=O)[C@H](CO)NC(=O)[C@@H]2CCCN2C(=O)CNC(=O)CNC(=O)[C@H](CC(=O)O)NC(=O)[C@H](CCCCN)NC(=O)[C@H](CC(C)C)NC(=O)[C@H](Cc2c[nH]c3ccccc23)NC(=O)[C@H](CCC(N)=O)NC1=O [E11_SS] (H-DLSKQMEEECVRLYIQWLKDGGPSSGRPPPC-OH; disulfide 10-31) | 0.00253 M⁻¹ s⁻¹ |

From paper PMC7079008, “Compactness of Protein Folds Alters Disulfide‐Bond Reducibility by Three Orders of Magnitude: A Comprehensive Kinetic Case Study on the Reduction of Differently Sized Tryptophan Cage Model Proteins” (Chembiochem, 2019)
